# Data: patent US20210085640A1, “ACYLATED CATECHIN POLYPHENOLS AND METHODS OF THEIR USE FOR THE TREATMENT OF CANCER” (Flagship Pioneering Innovations V, Inc., priority 2018, published 2021)
# What was measured:
# Assay type in all cases: cell-based
# [1] = system: PC-3 prostate cancer cells; assay: Cancer cell survival (CellTiter-Glo), PC-3; details: PC-3 cells, 72 h
# Procedure: (§1) The cells were prepared as follows. Cells were harvested during logarithmic growth, counted, and adjusted to 4.44×10^4 cells/mL with culture media. 90 μL of suspended cells were added to wells of 96-well plates for a final cell count of 4×10^3 cells/well. The plates were incubated overnight at 37 C with 5% CO2 overnight.
# (§2) The test compounds were assayed as follows. Compound solutions were mixed at 10× final concentrations in cell media: 1 μM-10 mM (fatty acids) or 100 nM-1 mM (all other compounds). […] of solution was added to each well of cells in triplicate for each concentration. Well plates were incubated for 72 h at 37 C with 5% CO2 and then assayed with CellTiter-Glo by adding 50 μL of CTG solution to each well. Cells were lysed by shaking on an orbital shaker for 5 min. Plates were incubated at room temperature for 20 min and then each well's luminescence was measured. The surviving percentage of cells was determined as:
# (§3) Survival %=(LumTest article−LumMedium control)/(LumNone treated−LumMedium control)[…]
# (§4) Cytotoxicity was assessed at nine concentration levels for each compound and the 50% inhibition concentration (IC50) determined for each compound.
# MCF7 breast cancer cells = assay: Cancer cell survival (CellTiter-Glo), MCF7; details: 72 h
# Procedure: as §1, §2, §3, §4
# A-431 skin cancer cells = assay: Cancer cell survival (CellTiter-Glo), A-431; parameters: Cell survival at given concentration: unit not given here; details: A-431 cells, 72 h
# Procedure: as §1, §2, §3, §4
# [2] = system: Daudi lymphoma cancer cells; assay: Cancer cell survival (CellTiter-Glo), Daudi; details: 72 h
# Procedure: as §1, §2, §3
# Activity was assessed at nine concentration levels for each compound and the 50% inhibition concentration (IC50) determined for each compound.
# [3] = system: HCT 116 colorectal cancer cells; assay: Cancer cell survival (CellTiter-Glo), HCT 116; details: HCT 116 cells, 72 h
# Procedure: as §1, §2, §3, §4
# AGS stomach cancer cells = assay: Cancer cell survival (CellTiter-Glo), AGS; parameters: Cell survival at given concentration: unit not given here
# Procedure: as §1, §2, §3, §4
# T24 bladder cancer cells = assay: Cancer cell survival (CellTiter-Glo), T24; details: 72 h
# Procedure: as §1, §2, §3
# Efficacy was assessed at nine concentration levels for each compound and the 50% inhibition concentration (IC50) determined for each compound.
# A549 lung cancer cells = assay: Cancer cell survival (CellTiter-Glo), A549; details: 72 h
# Procedure: as §1, §2, §3, §4
smiles,measurement,setting,value
CC(=O)O [acetate],Cell survival at given concentration,"[1]; 1 μM, Table 8.2",1.05
same,Cell survival at given concentration,"[1]; 3 μM, Table 8.2",1.00
same,Cell survival at given concentration,"[1]; 10 μM, Table 8.2",1.02
same,Cell survival at given concentration,"[1]; 32 μM, Table 8.2",1.03
same,Cell survival at given concentration,"[1]; 100 μM, Table 8.2",1.07
same,Cell survival at given concentration,[1]; 317 μM,1.05
same,Cell survival at given concentration,[1]; 1 mM,1.01
same,Cell survival at given concentration,[1]; 3 mM,1.00
same,Cell survival at given concentration,[1]; 10 mM,0.88
same,IC50,[1]; Table 8.2,> 10 mM
same,Cell survival at given concentration,"MCF7 breast cancer cells; 1 μM, Table 5.2",1.01
same,Cell survival at given concentration,"MCF7 breast cancer cells; 3 μM, Table 5.2",1.02
same,Cell survival at given concentration,"MCF7 breast cancer cells; 10 μM, Table 5.2",0.98
same,Cell survival at given concentration,"MCF7 breast cancer cells; 32 μM, Table 5.2",1.03
same,Cell survival at given concentration,"MCF7 breast cancer cells; 100 μM, Table 5.2",1.02
same,Cell survival at given concentration,MCF7 breast cancer cells; 317 μM,1.04
same,Cell survival at given concentration,MCF7 breast cancer cells; 1 mM,0.99
same,Cell survival at given concentration,MCF7 breast cancer cells; 3 mM,0.99
same,Cell survival at given concentration,MCF7 breast cancer cells; 10 mM,0.91
same,Cell survival at given concentration,"A-431 skin cancer cells; 1 μM, Table 9.2",1.02
same,Cell survival at given concentration,"A-431 skin cancer cells; 3 μM, Table 9.2",1.03
same,Cell survival at given concentration,"A-431 skin cancer cells; 10 μM, Table 9.2",1.06
same,Cell survival at given concentration,"A-431 skin cancer cells; 32 μM, Table 9.2",1.03
same,Cell survival at given concentration,"A-431 skin cancer cells; 100 μM, Table 9.2",1.05
same,Cell survival at given concentration,A-431 skin cancer cells; 317 μM,1.05
same,Cell survival at given concentration,A-431 skin cancer cells; 1 mM,1.05
same,Cell survival at given concentration,A-431 skin cancer cells; 3 mM,1.02
same,Cell survival at given concentration,A-431 skin cancer cells; 10 mM,0.99
same,Cell survival at given concentration,"[2]; 1 μM, Table 4.2",1.00
same,Cell survival at given concentration,"[2]; 3 μM, Table 4.2",0.99
same,Cell survival at given concentration,"[2]; 10 μM, Table 4.2",0.99
same,Cell survival at given concentration,"[2]; 32 μM, Table 4.2",1.01
same,Cell survival at given concentration,"[2]; 100 μM, Table 4.2",1.02
same,Cell survival at given concentration,[2]; 317 μM,1.02
same,Cell survival at given concentration,[2]; 1 mM,1.01
same,Cell survival at given concentration,[2]; 3 mM,0.97
same,Cell survival at given concentration,[2]; 10 mM,0.75
same,Cell survival at given concentration,"[3]; 1 μM, Table 6.2",1.01
same,Cell survival at given concentration,"[3]; 3 μM, Table 6.2",1.03
same,Cell survival at given concentration,"[3]; 10 μM, Table 6.2",1.03
same,Cell survival at given concentration,"[3]; 32 μM, Table 6.2",1.03
same,Cell survival at given concentration,"[3]; 100 μM, Table 6.2",1.06
same,Cell survival at given concentration,[3]; 317 μM,1.02
same,Cell survival at given concentration,[3]; 1 mM,1.02
same,Cell survival at given concentration,[3]; 3 mM,1.00
same,Cell survival at given concentration,[3]; 10 mM,0.84
same,IC50,[3]; Table 6.2,> 10 mM
same,Cell survival at given concentration,"AGS stomach cancer cells; 1 μM, Table 10.2",0.99
same,Cell survival at given concentration,"AGS stomach cancer cells; 3 μM, Table 10.2",1.00
same,Cell survival at given concentration,"AGS stomach cancer cells; 10 μM, Table 10.2",1.02
same,Cell survival at given concentration,"AGS stomach cancer cells; 32 μM, Table 10.2",1.03
same,Cell survival at given concentration,"AGS stomach cancer cells; 100 μM, Table 10.2",1.03
same,Cell survival at given concentration,AGS stomach cancer cells; 317 μM,1.03
same,Cell survival at given concentration,AGS stomach cancer cells; 1 mM,1.02
same,Cell survival at given concentration,AGS stomach cancer cells; 3 mM,1.03
same,Cell survival at given concentration,AGS stomach cancer cells; 10 mM,1.02
same,Cell survival at given concentration,"T24 bladder cancer cells; 1 μM, Table 3.2",0.97
same,Cell survival at given concentration,"T24 bladder cancer cells; 3 μM, Table 3.2",0.97
same,Cell survival at given concentration,"T24 bladder cancer cells; 10 μM, Table 3.2",1.04
same,Cell survival at given concentration,"T24 bladder cancer cells; 32 μM, Table 3.2",0.97
same,Cell survival at given concentration,"T24 bladder cancer cells; 100 μM, Table 3.2",1.00
same,Cell survival at given concentration,T24 bladder cancer cells; 317 μM,1.01
same,Cell survival at given concentration,T24 bladder cancer cells; 1 mM,0.99
same,Cell survival at given concentration,T24 bladder cancer cells; 3 mM,0.97
same,Cell survival at given concentration,T24 bladder cancer cells; 10 mM,0.91
same,Cell survival at given concentration,"A549 lung cancer cells; 1 μM, Table 7.2",1.00
same,Cell survival at given concentration,"A549 lung cancer cells; 3 μM, Table 7.2",1.01
same,Cell survival at given concentration,"A549 lung cancer cells; 10 μM, Table 7.2",1.00
same,Cell survival at given concentration,"A549 lung cancer cells; 32 μM, Table 7.2",1.06
same,Cell survival at given concentration,"A549 lung cancer cells; 100 μM, Table 7.2",1.09
same,Cell survival at given concentration,A549 lung cancer cells; 317 μM,1.02
same,Cell survival at given concentration,A549 lung cancer cells; 1 mM,1.03
same,Cell survival at given concentration,A549 lung cancer cells; 3 mM,1.03
same,Cell survival at given concentration,A549 lung cancer cells; 10 mM,1.00
